Experimental data taken from patent publication EP0329904A1, “Use of quinolizine and quinolizinone derivatives in the manufacture of medicaments for the treatment of anxiety” (MERRELL DOW PHARMACEUTICALS INC., priority 1988, dated 1989).
Where a name gives a salt, the structure may show the parent alone.

Tested on: Von Bezold-Jarisch Reflex induced by 5-HT
Assay: Von Bezold-Jarisch Reflex induced by 5-HT injected intravenously
Format: in vivo
Details: rat
Excerpt: The activity of these compounds against 5-HT can be assessed in vivo by measurement of the effect of the compound on the Von Bezold-Jarisch Reflex induced by 5-HT injected intravenously into the rat (see Paintal A.S., Physiol. Rev. 53, 159-227, 1973; J.R. Fozard, Naunyn-Schmiedeberg's Arch. Pharmacol., 326, 1984, 36-44). The transient cardiac slowing arises from an increased afferent vagus activity arising from stimulation by 5-HT of sensory afferent fibers in and around the heart.

[1] = doses of 0.01-0.1 mg/kg given intravenously
[2] = doses of 0.25-1 mg/kg given orally

| SMILES | suppression of the Von Bezold-Jarisch Reflex response [1] | suppression of the Von Bezold-Jarisch Reflex response [2] |
| --- | --- | --- |
| Cc1cc(C)cc(C(=O)OC2CC3CC4CC(C2)N3CC4=O)c1 (stereo not drawn) [endo-8-(3,5-dimethylbenzoyloxy)hexahydro-2,6-methano-2H-quinolizin-3(4H)-one] | suppressed the response dose-dependently | suppressed the response dose-dependently |
| O=C(OC1CC2CC3CC(C1)N2CC3=O)c1c[nH]c2ccccc12 (stereo not drawn) [endo-hexahydro-8-(3-indolylcarbonyloxy)-2,6-methano-2H-quinolizin-3(4H)one hydrochloride] | suppressed the response dose-dependently | suppressed the response dose-dependently |
